Assay results from PubChem BioAssay AID2060496 (Molecular Pharmacology Branch, DTP, NCI, 2025).

System: 276233-004-R-J1-PDC complex spheroid viability
Experiment: Anticancer human tumor 276233-004-R-J1-PDC patient-derived colon adenocarcinoma cell line growth inhibition [GQUAD]
Details: for IC50: curve of first compound; for viability, T/C: stronger effect = lower value
Procedure, shortened: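 Viability of tumor cells grown as complex spheroids with endothelial and stromal cells, exposed to drug combinations. Top concentration at or near clinical Cmax (else 10 microM), diluted in half-log increments.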

[1] = second compound 0.0316 µM, first compound 0.0316 µM
[2] = second compound 0.0316 µM, first compound 0.316 µM
[3] = second compound 0.1 µM, first compound 0.0316 µM
[4] = second compound 0.1 µM, first compound 0.316 µM
[5] = second compound 0.316 µM, first compound 0.0316 µM
[6] = second compound 0.316 µM, first compound 0.316 µM
[7] = second compound 1 µM, first compound 0.0316 µM
[8] = second compound 1 µM, first compound 0.316 µM
[9] = second compound 3.16 µM, first compound 0.0316 µM
[10] = second compound 3.16 µM, first compound 0.316 µM
[11] = second compound 10 µM, first compound 0.0316 µM
[12] = second compound 10 µM, first compound 0.316 µM
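Further: spheroids exposed to drugs for seven days.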
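Wherever viability, T/C is given: 100% = DMSO vehicle control viability.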

CC[C@@]1(O)C(=O)OCc2c1cc1n(c2=O)Cc2cc3c(CN(C)C)c(O)ccc3nc2-1 + Cc1[nH]c2ccc(F)cc2c1-c1nc2c3cccnc3c3ncccc3c2[nH]1
IC50 (second compound 0.0316 µM): > 0.316 µM
IC50 (second compound 0.1 µM): > 0.316 µM
IC50 (second compound 0.316 µM): > 0.316 µM
IC50 (second compound 1 µM): > 0.316 µM
IC50 (second compound 3.16 µM): < 0.000999 µM
IC50 (second compound 10 µM): < 0.000999 µM
viability, T/C (second compound 0.0316 µM, first compound 0.000999 µM): 83.1%
viability, T/C (second compound 0.0316 µM, first compound 0.00316 µM): 76.6%
viability, T/C (second compound 0.0316 µM, first compound 0.00999 µM): 80.8%
viability, T/C [1]: 89.2%
viability, T/C (second compound 0.0316 µM, first compound 0.0999 µM): 92%
viability, T/C [2]: 91.5%
viability, T/C (second compound 0.1 µM, first compound 0.000999 µM): 93.4%
viability, T/C (second compound 0.1 µM, first compound 0.00316 µM): 102%
viability, T/C (second compound 0.1 µM, first compound 0.00999 µM): 102%
viability, T/C [3]: 87%
viability, T/C (second compound 0.1 µM, first compound 0.0999 µM): 88.2%
viability, T/C [4]: 96.9%
viability, T/C (second compound 0.316 µM, first compound 0.000999 µM): 78.7%
viability, T/C (second compound 0.316 µM, first compound 0.00316 µM): 88.4%
viability, T/C (second compound 0.316 µM, first compound 0.00999 µM): 82.7%
viability, T/C [5]: 89.6%
viability, T/C (second compound 0.316 µM, first compound 0.0999 µM): 99.6%
viability, T/C [6]: 82.8%
viability, T/C (second compound 1 µM, first compound 0.000999 µM): 71.2%
viability, T/C (second compound 1 µM, first compound 0.00316 µM): 78.4%
viability, T/C (second compound 1 µM, first compound 0.00999 µM): 76.2%
viability, T/C [7]: 67.9%
viability, T/C (second compound 1 µM, first compound 0.0999 µM): 58.2%
viability, T/C [8]: 77.7%
viability, T/C (second compound 3.16 µM, first compound 0.000999 µM): 48.4%
viability, T/C (second compound 3.16 µM, first compound 0.00316 µM): 54.4%
viability, T/C (second compound 3.16 µM, first compound 0.00999 µM): 48.5%
viability, T/C [9]: 51.6%
viability, T/C (second compound 3.16 µM, first compound 0.0999 µM): 61.9%
viability, T/C [10]: 58.3%
viability, T/C (second compound 10 µM, first compound 0.000999 µM): 46%
viability, T/C (second compound 10 µM, first compound 0.00316 µM): 40.5%
viability, T/C (second compound 10 µM, first compound 0.00999 µM): 53.9%
viability, T/C [11]: 58%
viability, T/C (second compound 10 µM, first compound 0.0999 µM): 50.7%
viability, T/C [12]: 46.7%

Nc1ccn(C2OC(CO)C(O)C2(F)F)c(=O)n1 (centres undefined) + CN(C)c1ccc(Nc2c3ccc(NC(=O)CCN4CCCC4)cc3nc3cc(NC(=O)CCN4CCCC4)ccc23)cc1
IC50 (second compound 0.0316 µM): > 10 µM
IC50 (second compound 0.1 µM): > 10 µM
IC50 (second compound 0.316 µM): > 10 µM
IC50 (second compound 1 µM): > 10 µM
IC50 (second compound 3.16 µM): > 10 µM
IC50 (second compound 10 µM): > 10 µM
viability, T/C [1]: 97.1%
viability, T/C (second compound 0.0316 µM, first compound 0.1 µM): 109%
viability, T/C [2]: 96.2%
viability, T/C (second compound 0.0316 µM, first compound 1 µM): 90.6%
viability, T/C (second compound 0.0316 µM, first compound 3.16 µM): 79.6%
viability, T/C (second compound 0.0316 µM, first compound 10 µM): 59%
viability, T/C [3]: 86.1%
viability, T/C (second compound 0.1 µM, first compound 0.1 µM): 88.6%
viability, T/C [4]: 89.7%
viability, T/C (second compound 0.1 µM, first compound 1 µM): 94.5%
viability, T/C (second compound 0.1 µM, first compound 3.16 µM): 73.8%
viability, T/C (second compound 0.1 µM, first compound 10 µM): 65%
viability, T/C [5]: 71.8%
viability, T/C (second compound 0.316 µM, first compound 0.1 µM): 78.7%
viability, T/C [6]: 59.6%
viability, T/C (second compound 0.316 µM, first compound 1 µM): 56.3%
viability, T/C (second compound 0.316 µM, first compound 3.16 µM): 56.6%
viability, T/C (second compound 0.316 µM, first compound 10 µM): 66.9%
viability, T/C [7]: 70.8%
viability, T/C (second compound 1 µM, first compound 0.1 µM): 53.9%
viability, T/C [8]: 53.6%
viability, T/C (second compound 1 µM, first compound 1 µM): 51%
viability, T/C (second compound 1 µM, first compound 3.16 µM): 57.9%
viability, T/C (second compound 1 µM, first compound 10 µM): 57.8%
viability, T/C [9]: 64.2%
viability, T/C (second compound 3.16 µM, first compound 0.1 µM): 60.5%
viability, T/C [10]: 56%
viability, T/C (second compound 3.16 µM, first compound 1 µM): 58.1%
viability, T/C (second compound 3.16 µM, first compound 3.16 µM): 44.7%
viability, T/C (second compound 3.16 µM, first compound 10 µM): 53.8%
viability, T/C [11]: 56.7%
viability, T/C (second compound 10 µM, first compound 0.1 µM): 57.9%
viability, T/C [12]: 47.5%
viability, T/C (second compound 10 µM, first compound 1 µM): 65.9%
viability, T/C (second compound 10 µM, first compound 3.16 µM): 61.4%
viability, T/C (second compound 10 µM, first compound 10 µM): 47.2%
